Data as given in the NIST ThermoML archive (doi:10.1016/j.jct.2012.02.023).

Test: xn = mol fraction of the nth substance listed
Conditions: 101 kPa, Liquid; for speed of sound: Sing-around technique in a fixed-path interferometer; for mass density: Vibrating tube method

CCCC[n+]1cccc(C)c1.F[B-](F)(F)F [1-butyl-3-methylpyridinium tetrafluoroborate] + CCO
Conditions | mass density, 293.15 K [kg/m3] | mass density, 303.15 K [kg/m3] | mass density, 313.15 K [kg/m3] | mass density, 323.15 K [kg/m3] | speed of sound, 293.15 K [m/s] | speed of sound, 303.15 K [m/s] | speed of sound, 313.15 K [m/s] | speed of sound, 323.15 K [m/s]
x1 = 0.0572 | 861.245 | 852.837 | 844.506 | 835.724 | 1206 | 1177 | 1146.5 | 1116.4
x1 = 0.0964 | 900.833 | 892.417 | 884.287 | 875.61 | 1239.4 | 1212.4 | 1183.6 | 1155.2
x1 = 0.1466 | 942.807 | 934.902 | 926.796 | 918.466 | 1281 | 1254.5 | 1228.4 | 1202
x1 = 0.1964 | 977.495 | 969.562 | 961.571 | 953.451 | 1320 | 1294.8 | 1269.1 | 1244.2
x1 = 0.2431 | 1004.66 | 996.702 | 988.807 | 980.836 | 1355.1 | 1330 | 1304.6 | 1279.3
x1 = 0.2998 | 1032.24 | 1024.76 | 1016.86 | 1009.22 | 1390.6 | 1365.5 | 1340.4 | 1315.4
x1 = 0.3966 | 1069.96 | 1062.42 | 1055 | 1047.46 | 1442.7 | 1417.4 | 1392.4 | 1366.2
x1 = 0.4984 | 1100.02 | 1092.8 | 1085.55 | 1078.03 | 1484.2 | 1459.2 | 1434.3 | 1409.9
x1 = 0.5931 | 1122.42 | 1115.36 | 1108.06 | 1100.95 | 1515.9 | 1491 | 1466.4 | 1442.2
x1 = 0.691 | 1141.63 | – | 1127.5 | 1120.36 | 1543.7 | – | 1494.9 | 1471.2
x1 = 0.8022 | 1159.85 | – | 1145.95 | 1138.97 | 1566.2 | – | 1517.2 | 1493.8
x1 = 0.8923 | 1172.56 | – | 1158.84 | 1151.94 | 1582.6 | – | 1534.7 | 1511.3
x1 = 0.9517 | 1180.05 | – | 1166.44 | 1159.62 | 1591.7 | – | 1543.7 | 1519.5
